Experimental data as given in patent US10220548B2, “Humidity activated formulation for volatile compounds” (AgroFresh, Inc., priority 2013, dated 2019).

Columns and labels:
[1] = Analysis of release of trans-2-hexenal or guaiacol from coating into headspace at 95% RH; format: physicochemical; conditions: PVOH coating strip, room temperature/95% RH
Protocol: (§1) Analysis of Release of trans-2-hexenal or guaiacol from Coating into Headspace: A strip of approximately 13.6 cm^2 is cut from the middle of the coated PET sheet. The coating is peeled off the PET backer and then placed in a petri-dish in a fume-hood overnight to allow any residual non-encapsulated active to evaporate. A GC vial, 20 mL, with a screw-on septum-cap is prepared at 95% humidity by adding a mini plastic ultracentrifuge vial with the cap cut off containing approximately 0.20 g of saturated potassium nitrate (KNO3) solution, with a few grains of solid KNO3 added to maintain saturation. After allowing time (at least 2 hours) for the humidity in the vial to equilibrate, the strip of coating is added to the GC vial, and the vial immediately sealed. After allowing the desired amount of time for release of the active from the coating, a headspace sample is removed by syringe for injection into the GC column. The concentration in the Headspace is determined by comparing the GC Peak Area of the sample to the GC Peak Area of the headspace from a vial containing 0.5 mL of pure trans-2-hexenal, or guaiacol.

[2] = Vapor pressure and saturated headspace concentration of pure reference compound; format: physicochemical; conditions: for saturated headspace concentration of reference samples: pure compound 0.5 mL in vial, calculated from known vapor pressures at room temperature
Protocol: The strips of coating are then placed inside GC headspace vials (20 mL). In some cases a droplet of water (0.10 mL) is added to the bottom of the vial (avoiding contact with the strip) before the vial is sealed, in order to generate an atmosphere of 100% relative humidity (RH).
as §1

[3] = Quantification of amount of active in coating by GC; format: physicochemical; conditions: PVOH/active/SDS coating; for % Incorporated active (compared to theoretical maximum amount): theoretical maximum 25 wt. % of active
Protocol: The coating is peeled off the PET backer and then placed in a petri-dish in a fume-hood overnight to allow any residual non-encapsulated active to evaporate. The following day, the delaminated coating is precisely weighed into a 20 mL GC vial. 5.0 grams of DI water is added, and the vial immediately sealed. The contents of the vial are gently swirled to dissolve the coating in the water, and at least 10 hours are allowed for the headspace to equilibrate with the aqueous phase. A headspace sample is then removed by syringe for injection into the GC column.

[4] = at 25° C.; known value; cited from earlier work

Row | Concentration of guaiacol in headspace (ppm) ([1]; 0.62 hours after strip inserted into GC vial) | Concentration of guaiacol in headspace (ppm) ([1]; 1.2 hours) | Concentration of guaiacol in headspace (ppm) ([1]; 1.75 hours) | Concentration of guaiacol in headspace (ppm) ([1]; 3.52 hours) | Concentration of guaiacol in headspace (ppm) ([1]; 23.75 hours) | saturated headspace concentration of reference samples [2] | Absolute amount of active incorporated (wt. %) [3] [% wt. %] | % Incorporated active (compared to theoretical maximum amount) [3] [%] | Concentration of trans-2-hexenal in headspace (ppm) ([1]; 0.17 hours after strip inserted into GC vial) | Concentration of trans-2-hexenal in headspace (ppm) ([1]; 0.70 hours) | Concentration of trans-2-hexenal in headspace (ppm) ([1]; 1.25 hours) | Concentration of trans-2-hexenal in headspace (ppm) ([1]; 1.78 hours) | Concentration of trans-2-hexenal in headspace (ppm) ([1]; 2.33 hours) | Concentration of trans-2-hexenal in headspace (ppm) ([1]; 2.87 hours) | Concentration of trans-2-hexenal in headspace (ppm) ([1]; 3.42 hours) | Concentration of trans-2-hexenal in headspace (ppm) ([1]; 4.52 hours) | Concentration of trans-2-hexenal in headspace (ppm) ([1]; 17.77 hours) | saturated concentration in the headspace of reference vial ([2]; pure compound 0.50 mL in vial, calculated from known vapor pressure at 25° C.) [ppm] | Compound | vapor pressure [4] [kPa]
1 | 76.17 | 81.90 | 80.20 | 82.55 | 89.52 | 145 ppm (V/V) | 17.2 | 68.7 | – | – | – | – | – | – | – | – | – | – | COc1ccccc1O [Guaiacol, guaiacol] | –
2 | – | – | – | – | – | 8685 ppm (V/V) | 18.0 | 71.9 | 350.60 | 589.45 | 1266.50 | 2036.63 | 3484.15 | 4541.25 | 6173.40 | 7357.28 | 6742.25 | – | CCC/C=C/C=O [Trans-2-hexenal, trans-2-hexenal] | –
3 | – | – | – | – | – | – | – | 75.0 | – | – | – | – | – | – | – | – | – | 1224 | CCCCCCO [Formulation 1-Hexanol, 1-hexanol] | 0.124
